Reference: patent US20230219965A1 (KSQ Therapeutics, Inc., priority 2020, published 2023)
Read-outs that look alike come from different tables or passages of the source.

What was measured:
[1] = test system: Ub-PCNA levels in the nucleus of ES2 cells (USP1 activity); experiment: ES2 Ub-PCNA immunofluorescence (IF) assay; assay type: cell-based; conditions: ES2 cells, 3 hours, Ub-PCNA immunofluorescence, read-out: USP1 IC50 (Ub-PCNA)
Procedure, shortened: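 AC50 derived from percent Ub-PCNA-positive nuclei, positivity set by a 95% cutoff from untreated-well intensities. Readout by imaging immunofluorescence (anti-Ub-PCNA, DAPI nuclear mask) after methanol fixation. Compound exposure: 3 h at 37° C, 0.3% DMSO final, on cells plated overnight.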

[2] = ADME solubility determination in PBS at pH 2.0 and pH 7.4; assay type: physicochemical; conditions: for solubility at 24 h: phosphate buffered saline, 25 °C, thermodynamic from solid
Procedure, shortened: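 Solubility was read by LC-MS/MS on centrifuged supernatants, calibrated to a known-concentration standard and corrected for dilution. Compound, dried down from 10 mM DMSO stock, was equilibrated 24 h at 25° C with shaking in PBS at pH 2.0 or pH 7.4.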

[3] = Liver microsomal metabolic stability, rat liver microsomes (RLM); conditions: 1 μM compound, 1 mg/mL microsomes, NADPH; for half-life at 1 μM: rat, liver microsomes, t1/2 (min) in RLM
[4] = target: USP1/UAF1 enzyme (Homo sapiens, UniProt O94782); experiment: USP1/UAF1 deubiquitination assay (ubiquitin-rhodamine 110 substrate); assay type: biochemical; conditions: read-out: USP1 IC50 (Ub-Rho)
USP1/UAF1 enzyme, sequence (O94782 whole entry): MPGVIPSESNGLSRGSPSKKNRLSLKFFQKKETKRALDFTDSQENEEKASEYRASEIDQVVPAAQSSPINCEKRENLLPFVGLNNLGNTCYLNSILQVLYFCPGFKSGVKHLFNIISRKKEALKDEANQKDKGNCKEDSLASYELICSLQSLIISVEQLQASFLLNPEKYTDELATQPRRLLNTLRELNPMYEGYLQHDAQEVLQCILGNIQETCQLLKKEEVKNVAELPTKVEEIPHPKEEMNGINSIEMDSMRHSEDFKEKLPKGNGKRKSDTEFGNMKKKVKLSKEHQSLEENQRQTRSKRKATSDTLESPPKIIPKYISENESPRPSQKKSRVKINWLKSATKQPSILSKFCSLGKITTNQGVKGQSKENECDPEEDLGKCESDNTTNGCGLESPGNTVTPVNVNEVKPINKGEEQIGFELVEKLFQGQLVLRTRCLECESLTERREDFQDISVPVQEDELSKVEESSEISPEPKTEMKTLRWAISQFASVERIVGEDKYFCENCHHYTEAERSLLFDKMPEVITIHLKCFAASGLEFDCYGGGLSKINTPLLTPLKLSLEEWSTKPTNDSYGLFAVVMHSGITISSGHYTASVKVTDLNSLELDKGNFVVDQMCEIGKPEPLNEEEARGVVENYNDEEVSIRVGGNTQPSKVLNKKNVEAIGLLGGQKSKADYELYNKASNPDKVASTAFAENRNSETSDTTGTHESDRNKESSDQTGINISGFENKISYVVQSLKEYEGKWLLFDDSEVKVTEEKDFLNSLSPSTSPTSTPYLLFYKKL
USP1/UAF1 enzyme, sequence (Q8TAF3 whole entry partner): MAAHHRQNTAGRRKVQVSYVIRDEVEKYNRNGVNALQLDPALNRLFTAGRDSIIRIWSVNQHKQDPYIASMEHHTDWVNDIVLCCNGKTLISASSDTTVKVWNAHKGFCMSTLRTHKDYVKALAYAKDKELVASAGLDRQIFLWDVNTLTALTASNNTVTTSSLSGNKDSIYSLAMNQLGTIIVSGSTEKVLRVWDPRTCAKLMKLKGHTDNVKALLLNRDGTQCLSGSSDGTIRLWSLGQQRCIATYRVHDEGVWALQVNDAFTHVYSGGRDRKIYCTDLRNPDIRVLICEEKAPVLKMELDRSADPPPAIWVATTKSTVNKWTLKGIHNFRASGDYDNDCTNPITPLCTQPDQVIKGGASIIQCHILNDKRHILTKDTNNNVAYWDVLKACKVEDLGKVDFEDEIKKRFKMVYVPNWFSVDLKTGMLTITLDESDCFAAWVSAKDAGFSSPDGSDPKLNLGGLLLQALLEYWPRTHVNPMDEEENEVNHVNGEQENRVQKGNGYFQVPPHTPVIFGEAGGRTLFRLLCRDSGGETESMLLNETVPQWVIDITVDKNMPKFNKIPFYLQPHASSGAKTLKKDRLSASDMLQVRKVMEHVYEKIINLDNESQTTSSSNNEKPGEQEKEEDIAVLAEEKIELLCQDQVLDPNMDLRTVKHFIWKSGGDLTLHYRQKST
Procedure, shortened: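 Cleavage of 150 nM ubiquitin-rhodamine 110 by 0.05 nM USP1/UAF1 was followed as fluorescence (Ex480/Em540, kinetic, 30 min) in Tris-HCl pH 7.8 buffer with EDTA, BSA, DTT and Tween-20. Compounds, top 10 μM, were preincubated with enzyme 10 min; % inhibition against no-enzyme and DMSO wells gave four-parameter IC50s.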

[5] = Liver microsomal metabolic stability, human liver microsomes (HLM); conditions: for half-life at 1 μM: human, liver microsomes
[6] = pH 2, aqueous buffer, PBS pH 2.0, 25° C., read-out: Solubility at pH 2.0
[7] = pH 7.4, aqueous buffer, PBS pH 7.4, 25° C., read-out: Solubility at pH 7.4

IC50 ([1]; Homo sapiens, ES-2) [µM] | solubility at 24 h [2, 6] [µM] | solubility at 24 h [2, 7] [µM] | half-life at 1 μM [3] [min] | IC50 [4] [µM] | half-life at 1 μM [5] [min] | IC50 [1] [µM] | Solubility at pH 2.0 (μM) ([2]; PBS pH 2.0, 25° C., 24 hours) | Solubility at pH 7.4 (μM) ([2]; PBS pH 7.4, 25° C., 24 hours) | t1/2 (min) in RLM [3] | t1/2 (min) in HLM ([5]; human liver microsomes, 1 μM compound, 1 mg/mL microsomes, NADPH) | SMILES
0.1 to 0.5 | < 10 | < 10 | > 25 | 0.1 to 0.5 | > 25 | – | – | – | – | – | CC(C)n1ncc(Cl)c1-c1cc2n(n1)CC(C)(O)C(=O)N2Cc1ccc(-c2nc(C(F)(F)F)cn2C)cc1 (stereo not drawn) [Example 232, 2-(4-chloro-1-isopropyl-1H-pyrazol-5-yl)-6-hydroxy-6-methyl-4-(4-(1-methyl-4-(trifluoromethyl)-1H-imidazol-2-yl)benzyl)-6,7-dihydropyrazolo[1,5-α]pyrimidin-5(4H)-one]
– | – | – | – | < 0.1 | – | 0.1 to 0.5 | ++ (“++” indicates 10 μM or greater) | + (“+” indicates less than 10 μM) | ++ (“++” indicates 25 minutes greater) | ++ (“++” indicates 25 minutes greater) | CCn1cc(C(F)(F)F)nc1-c1ccc(CN2C(=O)C(N)Cn3nc(-c4c(Cl)cnn4C(C)C)cc32)cc1 (stereo not drawn) [Example 233, 6-amino-2-(4-chloro-1-isopropyl-1H-pyrazol-5-yl)-4-(4-(1-ethyl-4-(trifluoromethyl)-1H-imidazol-2-yl)benzyl)-6,7-dihydropyrazolo[1,5-α]pyrimidin-5(4H)-one]
0.1 to 0.5 | ≥ 10 | < 10 | < 25 | < 0.1 | < 25 | – | – | – | – | – | CCn1cc(C(F)(F)F)nc1-c1ccc(CN2C(=O)C(N(C)C)Cn3nc(-c4c(Cl)cnn4C(C)C)cc32)cc1 (stereo not drawn) [Example 235, 2-(4-chloro-1-isopropyl-1H-pyrazol-5-yl)-6-(dimethylamino)-4-(4-(1-ethyl-4-(trifluoromethyl)-1H-imidazol-2-yl)benzyl)-6,7-dihydropyrazolo[1,5-α]pyrimidin-5(4H)-one]
> 0.5 | ≥ 10 | < 10 | < 25 | 0.1 to 0.5 | < 25 | – | – | – | – | – | CCn1cc(C(F)(F)F)nc1-c1ccc(CN2C(=O)C(NC)Cn3nc(-c4c(Cl)cnn4C(C)C)cc32)cc1 (stereo not drawn) [Example 236, 2-(4-chloro-1-isopropyl-1H-pyrazol-5-yl)-4-(4-(1-ethyl-4-(trifluoromethyl)-1H-imidazol-2-yl)benzyl)-6-(methylamino)-6,7-dihydropyrazolo[1,5-α]pyrimidin-5(4H)-one]
< 0.1 | < 10 | < 10 | < 25 | < 0.1 | > 25 | – | – | – | – | – | CCn1cc(C(F)(F)F)nc1-c1ccc(NC2CCCn3nc(-c4c(Cl)cnn4C(C)C)cc32)cc1 (stereo not drawn) [Example 237, 2-(4-chloro-1-isopropyl-1H-pyrazol-5-yl)-N-(4-(1-ethyl-4-(trifluoromethyl)-1H-imidazol-2-yl)phenyl)-4,5,6,7-tetrahydropyrazolo[1,5-α]pyridin-4-amine]
< 0.1 | ≥ 10 | < 10 | > 25 | < 0.1 | > 25 | – | – | – | – | – | CCn1cc(C(F)(F)F)nc1-c1ccc(NC2CCCn3nc(-c4c(OC)ncnc4C4CC4)cc32)cc1 (stereo not drawn) [Example 240, 2-(4-cyclopropyl-6-methoxypyrimidin-5-yl)-N-(4-(1-ethyl-4-(trifluoromethyl)-1H-imidazol-2-yl)phenyl)-4,5,6,7-tetrahydropyrazolo[1,5-a]pyridin-4-amine]
0.1 to 0.5 | < 10 | < 10 | > 25 | < 0.1 | > 25 | – | – | – | – | – | CCn1cc(C(F)(F)F)nc1-c1ccc(NC2CCCn3nc(-c4c(Cl)cnn4C(C)C)cc32)cc1F (stereo not drawn) [Example 241, 2-(4-chloro-1-isopropyl-1H-pyrazol-5-yl)-N-(4-(1-ethyl-4-(trifluoromethyl)-1H-imidazol-2-yl)-3-fluorophenyl)-4,5,6,7-tetrahydropyrazolo[1,5-a]pyridin-4-amine]
< 0.1 | < 10 | < 10 | > 25 | < 0.1 | > 25 | – | – | – | – | – | Cc1cc(C(F)(F)F)nn1-c1ccc(NC2CCCn3nc(-c4c(Cl)cnn4C(C)C)cc32)cc1 (stereo not drawn) [Example 244, 2-(4-chloro-1-isopropyl-1H-pyrazol-5-yl)-N-(4-(5-methyl-3-(trifluoromethyl)-1H-pyrazol-1-yl)phenyl)-4,5,6,7-tetrahydropyrazolo[1,5-a]pyridin-4-amine]
0.1 to 0.5 | < 10 | < 10 | > 25 | < 0.1 | > 25 | – | – | – | – | – | CCn1cc(C(F)(F)F)nc1-c1ccc(NC2CCCn3nc(-c4c(Cl)cnn4C(C)C)cc32)cn1 (stereo not drawn) [Example 245, 2-(4-chloro-1-isopropyl-1H-pyrazol-5-yl)-N-(6-(1-ethyl-4-(trifluoromethyl)-1H-imidazol-2-yl)pyridin-3-yl)-4,5,6,7-tetrahydropyrazolo[1,5-a]pyridin-4-amine]
0.1 to 0.5 | ≥ 10 | < 10 | > 25 | < 0.1 | > 25 | – | – | – | – | – | CCn1cc(C(F)(F)F)nc1-c1ccc(NC2CCCn3nc(-c4c(Cl)cnn4C(C)C)cc32)cc1OC (stereo not drawn) [Example 246, 2-(4-chloro-1-isopropyl-1H-pyrazol-5-yl)-N-(4-(1-ethyl-4-(trifluoromethyl)-1H-imidazol-2-yl)-3-methoxyphenyl)-4,5,6,7-tetrahydropyrazolo[1,5-a]pyridin-4-amine]
0.1 to 0.5 | < 10 | < 10 | < 25 | < 0.1 | < 25 | – | – | – | – | – | CCn1cc(C#N)nc1-c1ccc(NC2CCCn3nc(-c4c(Cl)cnn4C(C)C)cc32)cc1 (stereo not drawn) [Example 247, 2-(4-((2-(4-chloro-1-isopropyl-1H-pyrazol-5-yl)-4,5,6,7-tetrahydropyrazolo[1,5-a]pyridin-4-yl)amino)phenyl)-1-ethyl-1H-imidazole-4-carbonitrile]
< 0.1 | ≥ 10 | ≥ 10 | > 25 | < 0.1 | > 25 | – | – | – | – | – | COc1ncnc(C2CC2)c1-c1cc2n(n1)CCCC2Nc1ccc(-c2nc(C(F)(F)F)cn2C(C)CF)cc1 (stereo not drawn) [Example 248, 2-(4-cyclopropyl-6-methoxypyrimidin-5-yl)-N-(4-(1-(1-fluoropropan-2-yl)-4-(trifluoromethyl)-1H-imidazol-2-yl)phenyl)-4,5,6,7-tetrahydropyrazolo[1,5-a]pyridin-4-amine]
< 0.1 | < 10 | < 10 | > 25 | < 0.1 | > 25 | – | – | – | – | – | CC(CF)n1cc(C(F)(F)F)nc1-c1ccc(NC2CCCn3nc(-c4c(OC(F)F)ncnc4C4CC4)cc32)cc1 (stereo not drawn) [Example 249, 2-(4-cyclopropyl-6-(difluoromethoxy)pyrimidin-5-yl)-N-(4-(1-(1-fluoropropan-2-yl)-4-(trifluoromethyl)-1H-imidazol-2-yl)phenyl)-4,5,6,7-tetrahydropyrazolo[1,5-a]pyridin-4-amine]
< 0.1 | < 10 | < 10 | > 25 | < 0.1 | > 25 | – | – | – | – | – | CCn1cc(C(F)(F)F)nc1-c1ccc(NC2CCCn3nc(-c4c(OC(F)F)ncnc4C4CC4)cc32)cc1 (stereo not drawn) [Example 250, 2-(4-cyclopropyl-6-(difluoromethoxy)pyrimidin-5-yl)-N-(4-(1-ethyl-4-(trifluoromethyl)-1H-imidazol-2-yl)phenyl)-4,5,6,7-tetrahydropyrazolo[1,5-a]pyridin-4-amine]
0.1 to 0.5 | < 10 | < 10 | < 25 | < 0.1 | > 25 | – | – | – | – | – | CCn1cc(C(F)(F)F)nc1-c1ccc(NC2CCCn3nc(-c4c(Cl)cnn4C(C)C)cc32)cc1C#N (stereo not drawn) [Example 255, 5-((2-(4-chloro-1-isopropyl-1H-pyrazol-5-yl)-4,5,6,7-tetrahydropyrazolo[1,5-a]pyridin-4-yl)amino)-2-(1-ethyl-4-(trifluoromethyl)-1H-imidazol-2-yl)benzonitrile]
0.1 to 0.5 | < 10 | < 10 | < 25 | < 0.1 | < 25 | – | – | – | – | – | CCn1cc(C(F)(F)F)nc1-c1ccc(N(C)C2CCCn3nc(-c4c(Cl)cnn4C(C)C)cc32)cc1 (stereo not drawn) [Example 258, 2-(4-chloro-1-isopropyl-1H-pyrazol-5-yl)-N-(4-(1-ethyl-4-(trifluoromethyl)-1H-imidazol-2-yl)phenyl)-N-methyl-4,5,6,7-tetrahydropyrazolo[1,5-α]pyridin-4-amine]
